Results reported in ChEMBL document CHEMBL3991601, “The target landscape of clinical kinase drugs” (Science, 2017).
Calls of active or inactive are those of the source. Rule as the data show it, for most assays here: actives have a measured Kd and inactives only a lower limit.

Experiments:
[1] = target: DnaJ homolog subfamily A member 1 (Homo sapiens, UniProt P31689)
[2] = target: Glycogen synthase kinase-3 alpha (Homo sapiens, UniProt P49840)
[3] = target: Mitogen-activated protein kinase 14 (Homo sapiens, UniProt Q16539)
[4] = target: T1, Dual specificity mitogen-activated protein kinase kinase 6 (Homo sapiens, UniProt P52564)
T1 sequence (P52564 whole entry): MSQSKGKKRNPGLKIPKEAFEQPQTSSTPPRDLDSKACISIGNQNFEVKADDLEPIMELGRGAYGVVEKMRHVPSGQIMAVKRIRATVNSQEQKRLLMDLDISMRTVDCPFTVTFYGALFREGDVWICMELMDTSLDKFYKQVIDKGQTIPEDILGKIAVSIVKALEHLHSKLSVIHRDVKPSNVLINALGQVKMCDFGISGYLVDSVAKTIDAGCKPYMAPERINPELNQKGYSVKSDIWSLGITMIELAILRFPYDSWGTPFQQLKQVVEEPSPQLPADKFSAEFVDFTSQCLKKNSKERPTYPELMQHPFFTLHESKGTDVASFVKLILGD

[5] = target: Macrophage-stimulating protein receptor (Homo sapiens, UniProt Q04912)
[6] = target: High affinity nerve growth factor receptor (Homo sapiens, UniProt P04629)
[7] = target: T2, Breakpoint cluster region protein (Homo sapiens, UniProt P11274)
T2 sequence (P11274 whole entry): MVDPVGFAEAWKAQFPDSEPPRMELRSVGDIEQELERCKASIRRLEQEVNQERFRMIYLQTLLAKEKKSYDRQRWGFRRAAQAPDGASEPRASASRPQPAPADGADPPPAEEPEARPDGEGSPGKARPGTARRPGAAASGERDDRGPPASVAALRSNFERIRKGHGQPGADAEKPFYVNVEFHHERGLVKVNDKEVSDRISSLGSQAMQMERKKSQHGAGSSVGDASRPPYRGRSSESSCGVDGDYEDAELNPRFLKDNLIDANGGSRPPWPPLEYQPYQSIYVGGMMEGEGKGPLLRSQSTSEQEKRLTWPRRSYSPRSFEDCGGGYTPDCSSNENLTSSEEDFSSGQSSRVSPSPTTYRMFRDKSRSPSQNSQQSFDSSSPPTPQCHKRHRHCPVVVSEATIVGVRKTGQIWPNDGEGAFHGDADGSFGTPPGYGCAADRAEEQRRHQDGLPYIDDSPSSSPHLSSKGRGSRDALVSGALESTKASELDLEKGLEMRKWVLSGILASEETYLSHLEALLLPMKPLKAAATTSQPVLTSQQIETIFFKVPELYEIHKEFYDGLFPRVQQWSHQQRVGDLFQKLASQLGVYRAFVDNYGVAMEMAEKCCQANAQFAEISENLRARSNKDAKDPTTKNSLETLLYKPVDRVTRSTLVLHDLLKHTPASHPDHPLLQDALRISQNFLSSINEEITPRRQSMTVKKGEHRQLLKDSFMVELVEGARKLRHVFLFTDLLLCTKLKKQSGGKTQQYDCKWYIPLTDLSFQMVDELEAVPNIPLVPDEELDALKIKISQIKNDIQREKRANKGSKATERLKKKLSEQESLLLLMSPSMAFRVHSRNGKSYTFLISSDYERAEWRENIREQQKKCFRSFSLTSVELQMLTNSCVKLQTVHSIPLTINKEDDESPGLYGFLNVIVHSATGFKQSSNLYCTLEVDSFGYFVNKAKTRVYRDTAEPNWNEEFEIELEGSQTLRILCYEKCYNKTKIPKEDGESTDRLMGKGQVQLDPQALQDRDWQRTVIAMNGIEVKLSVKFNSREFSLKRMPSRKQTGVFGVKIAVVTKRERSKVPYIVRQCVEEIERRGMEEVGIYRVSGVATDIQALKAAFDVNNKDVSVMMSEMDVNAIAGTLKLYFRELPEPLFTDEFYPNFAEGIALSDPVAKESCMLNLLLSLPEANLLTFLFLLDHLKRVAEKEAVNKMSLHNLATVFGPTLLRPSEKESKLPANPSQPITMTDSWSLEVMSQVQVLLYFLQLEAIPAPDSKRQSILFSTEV

[8] = target: Citron Rho-interacting kinase (Homo sapiens, UniProt O14578)
[9] = target: T3, Succinate--CoA ligase [ADP-forming] subunit beta, mitochondrial (Homo sapiens, UniProt Q9P2R7)
T3 sequence (Q9P2R7 whole entry): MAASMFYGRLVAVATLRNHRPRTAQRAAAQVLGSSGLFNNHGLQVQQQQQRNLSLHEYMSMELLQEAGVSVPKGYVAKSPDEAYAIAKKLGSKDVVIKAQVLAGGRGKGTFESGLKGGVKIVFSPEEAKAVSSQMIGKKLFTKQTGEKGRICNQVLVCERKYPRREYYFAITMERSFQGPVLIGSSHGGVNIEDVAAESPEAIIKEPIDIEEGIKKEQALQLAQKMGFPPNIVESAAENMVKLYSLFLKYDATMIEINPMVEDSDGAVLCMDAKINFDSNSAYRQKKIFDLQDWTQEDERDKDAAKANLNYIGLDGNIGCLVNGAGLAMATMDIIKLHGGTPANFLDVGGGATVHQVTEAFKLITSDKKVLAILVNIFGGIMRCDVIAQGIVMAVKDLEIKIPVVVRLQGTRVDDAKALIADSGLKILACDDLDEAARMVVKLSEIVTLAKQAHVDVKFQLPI

[10] = target: Serine/threonine-protein kinase B-raf (Homo sapiens, UniProt P15056)
[11] = target: T4, Serine/threonine-protein kinase Nek2 (Homo sapiens, UniProt P51955)
T4 sequence (P51955 whole entry): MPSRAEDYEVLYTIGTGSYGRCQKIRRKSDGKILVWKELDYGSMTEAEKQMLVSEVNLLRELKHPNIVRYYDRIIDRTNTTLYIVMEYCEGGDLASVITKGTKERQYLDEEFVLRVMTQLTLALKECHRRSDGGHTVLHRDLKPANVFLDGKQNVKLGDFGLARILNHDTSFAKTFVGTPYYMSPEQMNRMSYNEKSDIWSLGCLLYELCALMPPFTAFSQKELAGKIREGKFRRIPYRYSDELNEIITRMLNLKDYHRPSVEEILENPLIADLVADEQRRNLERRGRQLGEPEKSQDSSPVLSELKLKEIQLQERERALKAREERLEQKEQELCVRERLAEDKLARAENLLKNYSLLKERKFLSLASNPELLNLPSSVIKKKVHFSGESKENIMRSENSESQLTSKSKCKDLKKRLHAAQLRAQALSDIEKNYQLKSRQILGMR

[12] = target: Mitogen-activated protein kinase kinase kinase kinase 4 (Homo sapiens, UniProt O95819)
Also: in the data inactive means no Kd found up to 30 µM.

DnaJ homolog subfamily A member 1, sequence (P31689 whole entry): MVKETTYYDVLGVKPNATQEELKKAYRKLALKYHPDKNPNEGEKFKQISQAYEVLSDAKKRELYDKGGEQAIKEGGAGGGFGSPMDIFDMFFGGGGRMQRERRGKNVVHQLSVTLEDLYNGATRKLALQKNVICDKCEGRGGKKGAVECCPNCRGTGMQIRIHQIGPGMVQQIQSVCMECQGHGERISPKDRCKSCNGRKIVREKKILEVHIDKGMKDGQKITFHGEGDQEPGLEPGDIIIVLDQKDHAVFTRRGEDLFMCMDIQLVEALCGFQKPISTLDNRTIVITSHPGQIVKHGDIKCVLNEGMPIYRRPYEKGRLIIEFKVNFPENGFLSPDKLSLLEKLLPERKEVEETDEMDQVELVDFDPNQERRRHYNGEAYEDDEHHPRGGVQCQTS
Serine/threonine-protein kinase B-raf, sequence (P15056 whole entry): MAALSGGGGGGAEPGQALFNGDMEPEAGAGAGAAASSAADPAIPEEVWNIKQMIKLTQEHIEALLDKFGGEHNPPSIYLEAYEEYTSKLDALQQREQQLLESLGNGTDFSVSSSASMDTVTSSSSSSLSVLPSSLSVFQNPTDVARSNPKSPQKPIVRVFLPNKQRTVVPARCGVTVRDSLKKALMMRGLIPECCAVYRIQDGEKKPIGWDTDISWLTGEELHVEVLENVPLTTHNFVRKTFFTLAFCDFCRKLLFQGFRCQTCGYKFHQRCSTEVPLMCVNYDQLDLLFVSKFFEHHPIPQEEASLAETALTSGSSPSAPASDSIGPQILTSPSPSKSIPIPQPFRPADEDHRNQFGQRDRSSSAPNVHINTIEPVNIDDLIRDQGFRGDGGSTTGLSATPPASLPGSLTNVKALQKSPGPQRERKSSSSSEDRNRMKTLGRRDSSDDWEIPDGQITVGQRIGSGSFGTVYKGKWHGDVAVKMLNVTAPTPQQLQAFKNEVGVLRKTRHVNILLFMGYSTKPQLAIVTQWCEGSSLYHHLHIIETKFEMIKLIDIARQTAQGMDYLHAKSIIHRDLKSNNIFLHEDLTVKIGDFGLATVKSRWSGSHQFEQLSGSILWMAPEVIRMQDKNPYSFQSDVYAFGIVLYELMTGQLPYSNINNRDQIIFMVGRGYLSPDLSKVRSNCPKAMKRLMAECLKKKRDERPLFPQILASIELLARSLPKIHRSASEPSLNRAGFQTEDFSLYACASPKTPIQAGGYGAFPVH
Citron Rho-interacting kinase, sequence (O14578 whole entry): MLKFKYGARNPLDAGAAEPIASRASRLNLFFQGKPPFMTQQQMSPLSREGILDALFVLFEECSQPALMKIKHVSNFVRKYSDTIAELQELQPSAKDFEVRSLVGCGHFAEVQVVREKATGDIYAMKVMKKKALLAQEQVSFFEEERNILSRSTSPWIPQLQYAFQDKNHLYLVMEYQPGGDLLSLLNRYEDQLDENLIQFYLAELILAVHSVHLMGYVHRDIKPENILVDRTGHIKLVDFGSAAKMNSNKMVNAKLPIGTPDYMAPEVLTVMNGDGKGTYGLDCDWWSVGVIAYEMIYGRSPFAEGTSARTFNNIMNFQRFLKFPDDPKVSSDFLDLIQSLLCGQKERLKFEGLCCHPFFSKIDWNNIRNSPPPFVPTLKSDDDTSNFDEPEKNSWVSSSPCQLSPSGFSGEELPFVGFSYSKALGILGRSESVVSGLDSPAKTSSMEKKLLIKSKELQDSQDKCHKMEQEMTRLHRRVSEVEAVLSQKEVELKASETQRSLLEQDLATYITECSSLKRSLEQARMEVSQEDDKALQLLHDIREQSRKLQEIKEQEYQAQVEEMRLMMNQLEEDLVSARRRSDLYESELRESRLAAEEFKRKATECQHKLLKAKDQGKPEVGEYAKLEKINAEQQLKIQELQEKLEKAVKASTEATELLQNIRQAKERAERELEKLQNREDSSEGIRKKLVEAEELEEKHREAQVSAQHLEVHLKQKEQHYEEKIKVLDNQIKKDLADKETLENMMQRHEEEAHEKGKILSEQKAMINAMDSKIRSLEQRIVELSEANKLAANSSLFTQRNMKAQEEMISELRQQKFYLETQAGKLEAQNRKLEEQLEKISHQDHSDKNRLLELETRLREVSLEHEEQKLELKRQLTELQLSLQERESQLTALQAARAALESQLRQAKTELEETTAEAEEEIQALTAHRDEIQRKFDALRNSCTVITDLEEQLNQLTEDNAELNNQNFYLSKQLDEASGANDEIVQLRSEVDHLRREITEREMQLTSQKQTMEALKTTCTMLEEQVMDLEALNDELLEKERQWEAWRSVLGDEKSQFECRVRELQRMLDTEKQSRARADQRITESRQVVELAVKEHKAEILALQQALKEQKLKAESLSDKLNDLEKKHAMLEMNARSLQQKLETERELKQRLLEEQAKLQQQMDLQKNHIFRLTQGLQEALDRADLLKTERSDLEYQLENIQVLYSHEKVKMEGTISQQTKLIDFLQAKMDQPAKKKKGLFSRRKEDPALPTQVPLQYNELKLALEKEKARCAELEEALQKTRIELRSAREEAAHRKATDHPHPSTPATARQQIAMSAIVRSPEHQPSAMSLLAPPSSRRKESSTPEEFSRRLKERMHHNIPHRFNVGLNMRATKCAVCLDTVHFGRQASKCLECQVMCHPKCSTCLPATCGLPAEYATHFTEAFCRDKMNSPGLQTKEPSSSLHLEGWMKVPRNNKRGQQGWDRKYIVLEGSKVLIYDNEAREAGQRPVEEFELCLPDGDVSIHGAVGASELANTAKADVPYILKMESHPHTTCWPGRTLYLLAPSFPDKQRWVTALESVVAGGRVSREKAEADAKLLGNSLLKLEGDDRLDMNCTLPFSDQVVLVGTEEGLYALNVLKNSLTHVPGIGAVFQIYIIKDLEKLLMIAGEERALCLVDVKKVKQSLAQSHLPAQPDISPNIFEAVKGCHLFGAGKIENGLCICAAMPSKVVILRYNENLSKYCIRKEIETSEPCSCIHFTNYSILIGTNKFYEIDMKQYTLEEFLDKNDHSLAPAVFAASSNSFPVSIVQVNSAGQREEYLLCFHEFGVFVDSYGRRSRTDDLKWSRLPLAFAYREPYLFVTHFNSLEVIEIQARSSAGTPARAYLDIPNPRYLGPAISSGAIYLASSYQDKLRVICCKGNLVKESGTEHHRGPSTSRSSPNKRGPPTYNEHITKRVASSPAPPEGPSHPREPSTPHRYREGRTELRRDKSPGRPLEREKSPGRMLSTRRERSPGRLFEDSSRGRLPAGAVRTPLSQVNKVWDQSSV
Mitogen-activated protein kinase 14, sequence (Q16539 whole entry): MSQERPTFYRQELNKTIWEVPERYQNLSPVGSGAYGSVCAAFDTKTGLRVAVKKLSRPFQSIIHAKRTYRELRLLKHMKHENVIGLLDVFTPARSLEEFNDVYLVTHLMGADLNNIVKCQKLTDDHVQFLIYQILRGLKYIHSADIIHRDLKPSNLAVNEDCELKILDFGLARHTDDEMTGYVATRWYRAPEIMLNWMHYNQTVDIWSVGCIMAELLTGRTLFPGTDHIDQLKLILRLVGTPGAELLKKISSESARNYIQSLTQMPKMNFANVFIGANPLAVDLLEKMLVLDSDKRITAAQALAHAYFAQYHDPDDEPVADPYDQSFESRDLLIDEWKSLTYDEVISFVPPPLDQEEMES
Macrophage-stimulating protein receptor, sequence (Q04912 25-304 limits assumed): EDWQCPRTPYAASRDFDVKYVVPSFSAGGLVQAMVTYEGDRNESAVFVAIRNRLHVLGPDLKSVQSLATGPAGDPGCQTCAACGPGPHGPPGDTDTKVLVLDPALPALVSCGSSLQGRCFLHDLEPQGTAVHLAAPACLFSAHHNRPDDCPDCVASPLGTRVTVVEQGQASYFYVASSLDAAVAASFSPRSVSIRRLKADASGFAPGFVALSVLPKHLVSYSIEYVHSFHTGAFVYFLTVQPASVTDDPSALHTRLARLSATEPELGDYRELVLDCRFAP
Macrophage-stimulating protein receptor, sequence (Q04912 310-1400 limits assumed): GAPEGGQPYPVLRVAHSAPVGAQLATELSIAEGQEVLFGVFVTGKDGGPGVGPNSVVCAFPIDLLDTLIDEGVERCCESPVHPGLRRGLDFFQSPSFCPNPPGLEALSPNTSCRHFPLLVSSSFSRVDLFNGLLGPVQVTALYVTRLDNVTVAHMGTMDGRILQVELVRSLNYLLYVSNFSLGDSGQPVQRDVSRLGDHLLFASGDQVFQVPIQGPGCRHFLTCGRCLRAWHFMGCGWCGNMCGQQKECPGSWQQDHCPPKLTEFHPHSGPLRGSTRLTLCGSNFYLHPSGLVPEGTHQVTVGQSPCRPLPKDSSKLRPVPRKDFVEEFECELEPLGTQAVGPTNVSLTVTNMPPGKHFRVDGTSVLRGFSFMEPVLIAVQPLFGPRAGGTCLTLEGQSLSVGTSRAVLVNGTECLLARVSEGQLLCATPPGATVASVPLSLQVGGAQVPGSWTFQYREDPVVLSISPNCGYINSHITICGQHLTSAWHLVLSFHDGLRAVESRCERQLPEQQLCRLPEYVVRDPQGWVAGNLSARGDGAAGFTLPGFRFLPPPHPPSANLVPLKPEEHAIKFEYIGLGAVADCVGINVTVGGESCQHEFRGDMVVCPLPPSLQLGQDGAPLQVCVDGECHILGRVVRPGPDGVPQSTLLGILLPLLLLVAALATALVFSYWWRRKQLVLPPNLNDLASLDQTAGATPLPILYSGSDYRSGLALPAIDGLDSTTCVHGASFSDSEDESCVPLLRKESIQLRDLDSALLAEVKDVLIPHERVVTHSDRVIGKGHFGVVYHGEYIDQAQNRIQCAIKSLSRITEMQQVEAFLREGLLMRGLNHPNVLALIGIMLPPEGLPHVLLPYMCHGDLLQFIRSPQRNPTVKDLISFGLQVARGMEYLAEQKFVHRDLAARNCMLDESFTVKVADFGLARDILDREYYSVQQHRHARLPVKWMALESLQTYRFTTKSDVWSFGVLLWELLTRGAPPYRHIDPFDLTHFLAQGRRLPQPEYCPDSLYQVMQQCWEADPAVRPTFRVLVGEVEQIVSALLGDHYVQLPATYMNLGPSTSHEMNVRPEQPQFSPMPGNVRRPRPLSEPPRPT

| SMILES | Kd [1] | Kd [2] | Kd [3] | Kd [4] | Kd [5] | Kd [6] | Kd [7] | Kd [8] | Kd [9] | Kd [10] | Kd [11] | Kd [12] |
| --- | --- | --- | --- | --- | --- | --- | --- | --- | --- | --- | --- | --- |
| Cc1cc(C(=O)NOCCO)c(Nc2ccc(I)cc2F)n(C)c1=O [AZD-8330] | > 30 µM (inactive) | > 30 µM (inactive) | > 30 µM (inactive) | > 30 µM (inactive) | > 30 µM (inactive) | > 30 µM (inactive) | > 30 µM (inactive) | > 30 µM (inactive) |  | > 30 µM (inactive) | > 30 µM (inactive) | > 30 µM (inactive) |
| C#Cc1cccc(Nc2ncnc3cc(OC)c(OCCCCCCC(=O)NO)cc23)c1 [CUDC-101] | > 30 µM (inactive) | > 30 µM (inactive) | > 30 µM (inactive) | > 30 µM (inactive) | > 30 µM (inactive) | > 30 µM (inactive) | > 30 µM (inactive) | > 30 µM (inactive) |  | > 30 µM (inactive) | > 30 µM (inactive) | > 30 µM (inactive) |
| O=C(Nc1cc(C(F)(F)F)cc(C(F)(F)F)c1)c1cc(Cl)ccc1O [IMD-0354] | > 30 µM (inactive) |  | > 30 µM (inactive) | > 30 µM (inactive) | > 30 µM (inactive) | > 30 µM (inactive) | > 30 µM (inactive) | > 30 µM (inactive) | > 30 µM (inactive) | > 30 µM (inactive) |  | > 30 µM (inactive) |
| CCOc1cc2ncc(C#N)c(Nc3ccc(F)c(Cl)c3)c2cc1NC(=O)/C=C/CN(C)C [PELITINIB] | > 30 µM (inactive) | > 30 µM (inactive) | > 30 µM (inactive) | > 30 µM (inactive) | > 30 µM (inactive) | > 30 µM (inactive) | 1.19 µM (active) | > 30 µM (inactive) | > 30 µM (inactive) | > 30 µM (inactive) |  | > 30 µM (inactive) |
| CO[C@H]1C[C@@H]2CC[C@@H](C)[C@@](O)(O2)C(=O)C(=O)N2CCCC[C@H]2C(=O)O[C@H]([C@H](C)C[C@@H]2CC[C@@H](OP(C)(C)=O)[C@H](OC)C2)CC(=O)[C@H](C)/C=C(\C)[C@@H](O)[C@@H](OC)C(=O)[C@H](C)C[C@H](C)/C=C/C=C/C=C/1C [RIDAFOROLIMUS] | > 30 µM (inactive) | > 30 µM (inactive) | > 30 µM (inactive) | > 30 µM (inactive) | > 30 µM (inactive) | > 30 µM (inactive) | > 30 µM (inactive) | > 30 µM (inactive) |  | > 30 µM (inactive) | > 30 µM (inactive) | > 30 µM (inactive) |
| CN1CCN(CCOc2cc(OC3CCOCC3)c3c(Nc4c(Cl)ccc5c4OCO5)ncnc3c2)CC1 [SARACATINIB] | > 30 µM (inactive) | > 30 µM (inactive) | > 30 µM (inactive) | > 30 µM (inactive) | > 30 µM (inactive) | > 30 µM (inactive) | 0.016 µM (active) | > 30 µM (inactive) |  | > 30 µM (inactive) | > 30 µM (inactive) | 1.12 µM (active) |

The remaining lines, values ahead:

| Kd [1] | Kd [2] | Kd [3] | Kd [4] | Kd [5] | Kd [6] | Kd [7] | Kd [8] | Kd [9] | Kd [10] | Kd [11] | Kd [12] | SMILES |
| --- | --- | --- | --- | --- | --- | --- | --- | --- | --- | --- | --- | --- |
| > 30 µM (inactive) | > 30 µM (inactive) | > 30 µM (inactive) | > 30 µM (inactive) | > 30 µM (inactive) | > 30 µM (inactive) | > 30 µM (inactive) | > 30 µM (inactive) | > 30 µM (inactive) | > 30 µM (inactive) | > 30 µM (inactive) |  | Cc1nc2cc(-c3nn(C(C)C)c4ncnc(N)c34)ccc2o1 |
| > 30 µM (inactive) | > 30 µM (inactive) | 0.735 µM (active) | > 30 µM (inactive) | > 30 µM (inactive) | > 30 µM (inactive) | 1.97 µM (active) | > 30 µM (inactive) |  | 2.48 µM (active) | > 30 µM (inactive) | > 30 µM (inactive) | Cc1csc(-c2nnc(Nc3ccc(Oc4ncccc4-c4ccnc(N)n4)cc3)c3ccccc23)c1 [AMG-900] |
| > 30 µM (inactive) | 0.006 µM (active) | > 30 µM (inactive) | 3.54 µM (active) | > 30 µM (inactive) | > 30 µM (inactive) | 0.156 µM (active) | > 30 µM (inactive) | > 30 µM (inactive) | > 30 µM (inactive) | > 30 µM (inactive) |  | O=C(Nc1c[nH]nc1-c1nc2cc(CN3CCOCC3)ccc2[nH]1)NC1CC1 [AT-9283] |
| > 30 µM (inactive) | > 30 µM (inactive) | 8.5 µM (active) | > 30 µM (inactive) | > 30 µM (inactive) | 5.95 µM (active) | > 30 µM (inactive) | 2.89 µM (active) |  | > 30 µM (inactive) | > 30 µM (inactive) |  | CCn1cc(-c2ccnc3[nH]c(-c4cccc(CN(C)C)c4)cc23)c(-c2ccc(NC(=O)N(C)C)cc2)n1 [GSK-1070916] |
| > 30 µM (inactive) | > 30 µM (inactive) | > 30 µM (inactive) | > 30 µM (inactive) | > 30 µM (inactive) | > 30 µM (inactive) | > 30 µM (inactive) | > 30 µM (inactive) |  | > 30 µM (inactive) | > 30 µM (inactive) | > 30 µM (inactive) | COc1ccc(S(=O)(=O)N(C(C)=O)c2ccccc2/C=C/c2cc[n+]([O-])cc2)cc1 [HMN-214] |
| > 30 µM (inactive) | 0.579 µM (active) | > 30 µM (inactive) | > 30 µM (inactive) | > 30 µM (inactive) |  | > 30 µM (inactive) | > 30 µM (inactive) | > 30 µM (inactive) | > 30 µM (inactive) | > 30 µM (inactive) | > 30 µM (inactive) | CN1C/C=C/CCOc2cccc(c2)-c2ccnc(n2)Nc2cccc(c2)C1 [ZOTIRACICLIB] |
